# Data reported in ChEMBL document CHEMBL3400114, “The design, synthesis and biological evaluation of conformationally restricted 4-substituted-2,6-dimethylfuro[2,3-d]pyrimidines as multi-targeted receptor tyrosine kinase and microtubule inhibitors as potential antitumor agents” (Bioorg Med Chem, 2015).
# Experiments:
# [1] = Growth inhibition of human EKVX cells after 48 hrs by sulforhodamine B assay; format: functional
# SNB-19 = experiment: Growth inhibition of human SNB19 cells after 48 hrs by sulforhodamine B assay; format: functional; settings: SNB-19, 48 h
# [2] = Induction of microtubule depolymerization in rat A10 cells after 18 hrs by indirect immunofluorescence assay; format: cell-based
# [3] = Growth inhibition of human HCT15 cells after 48 hrs by sulforhodamine B assay; format: functional; settings: HCT-15, 48 h
# NCI-H522 = experiment: Growth inhibition of human NCI-H522 cells after 48 hrs by sulforhodamine B assay; format: functional; settings: NCI-H522, 48 h
# A498 = experiment: Growth inhibition of human A498 cells after 48 hrs by sulforhodamine B assay; format: functional; settings: A498, 48 h
# [4] = Antiproliferative activity against human SKOV3 cells overexpressing wild type beta3 tubulin after 48 hrs by sulforhodamine B assay; format: functional, cell-based; settings: SK-OV-3, 48 h
# Tubulin (Bos taurus) [5] = target: T1, Tubulin (Bos taurus) (UniProt Q6B856+Q862L2+Q862F3); experiment: Displacement of [3H]colchicine from bovine brain tubulin assembly at 1 uM
# A549 = experiment: Growth inhibition of human A549 cells after 48 hrs by sulforhodamine B assay; format: functional; settings: A549, 48 h
# [6] = Antiproliferative activity against human SKOV3-MDR1-M6/6 cells overexpressing wild type beta3 tubulin after 48 hrs by sulforhodamine B assay; format: functional, cell-based; settings: SKOV3-MDR1-M6/6, 48 h
# [7] = Growth inhibition of human MOLT4 cells after 48 hrs by sulforhodamine B assay; format: functional; settings: MOLT-4, 48 h
# NCI-H23 = experiment: Growth inhibition of human NCI-H23 cells after 48 hrs by sulforhodamine B assay; format: functional; settings: NCI-H23, 48 h
# MDA-MB-231 = experiment: Growth inhibition of human MDA-MB-231 cells after 48 hrs by sulforhodamine B assay; format: functional; settings: MDA-MB-231, 48 h
# MCF7 = experiment: Growth inhibition of human MCF7 cells after 48 hrs by sulforhodamine B assay; format: functional; settings: MCF7, 48 h
# ACHN = experiment: Growth inhibition of human ACHN cells after 48 hrs by sulforhodamine B assay; format: functional
# [8] = Growth inhibition of human UACC62 cells after 48 hrs by sulforhodamine B assay; format: functional; settings: UACC-62, 48 h
# [9] = Growth inhibition of human COLO205 cells after 48 hrs by sulforhodamine B assay; format: functional; settings: COLO 205, 48 h
# HeLa [10] = experiment: Antiproliferative activity against human HeLa cells after 48 hrs by sulforhodamine B assay; format: functional, cell-based
# K562 = experiment: Growth inhibition of human K562 cells after 48 hrs by sulforhodamine B assay; format: functional; settings: K562, 48 h
# [11] = Growth inhibition of human HCT116 cells after 48 hrs by sulforhodamine B assay; format: functional; settings: HCT-116, 48 h
# SK-MEL-28 = experiment: Growth inhibition of human SK-MEL-28 cells after 48 hrs by sulforhodamine B assay; format: functional; settings: SK-MEL-28, 48 h
# HL-60(TB) = experiment: Growth inhibition of human HL-60(TB) cells after 48 hrs by sulforhodamine B assay; format: functional; settings: HL-60, 48 h
# DU-145 = experiment: Growth inhibition of human DU145 cells after 48 hrs by sulforhodamine B assay; format: functional; settings: DU-145, 48 h
# SW-620 = experiment: Growth inhibition of human SW620 cells after 48 hrs by sulforhodamine B assay; format: functional; settings: SW-620, 48 h
# [12] = Growth inhibition of human Hs 578T cells after 48 hrs by sulforhodamine B assay; format: functional
# NCI-H460 = experiment: Growth inhibition of human NCI-H460 cells after 48 hrs by sulforhodamine B assay; format: functional; settings: NCI-H460, 48 h
# [13] = Growth inhibition of human OVCAR4 cells after 48 hrs by sulforhodamine B assay; format: functional; settings: OVCAR-4, 48 h
# [14] = Growth inhibition of human BT549 cells after 48 hrs by sulforhodamine B assay; format: functional; settings: BT-549, 48 h
# [15] = Growth inhibition of human OVCAR5 cells after 48 hrs by sulforhodamine B assay; format: functional; settings: OVCAR-5, 48 h
# 786-0 = experiment: Growth inhibition of human 786-0 cells after 48 hrs by sulforhodamine B assay; format: functional; settings: 786-0, 48 h
# CCRF-CEM = experiment: Growth inhibition of human CCRF-CEM cells after 48 hrs by sulforhodamine B assay; format: functional
# [16] = Growth inhibition of human PC3 cells after 48 hrs by sulforhodamine B assay; format: functional; settings: PC-3, 48 h
# HOP-62 = experiment: Growth inhibition of human HOP62 cells after 48 hrs by sulforhodamine B assay; format: functional; settings: HOP-62, 48 h
# CAKI-1 = experiment: Growth inhibition of human Caki1 cells after 48 hrs by sulforhodamine B assay; format: functional; settings: CAKI-1, 48 h
# MDA-MB-468 = experiment: Growth inhibition of human MDA-MB-468 cells after 48 hrs by sulforhodamine B assay; format: functional; settings: MDA-MB-468, 48 h
# KM12 = experiment: Growth inhibition of human KM12 cells after 48 hrs by sulforhodamine B assay; format: functional; settings: KM12, 48 h
# IGROV-1 = experiment: Growth inhibition of human IGROV1 cells after 48 hrs by sulforhodamine B assay; format: functional; settings: IGROV-1, 48 h
# Tubulin (Bos taurus) [17] = target: T1, Tubulin (Bos taurus); experiment: Displacement of [3H]colchicine from bovine brain tubulin assembly at 5 uM
# Malme-3M = experiment: Growth inhibition of human MALME-3M cells after 48 hrs by sulforhodamine B assay; format: functional
# SN12C = experiment: Growth inhibition of human SN12C cells after 48 hrs by sulforhodamine B assay; format: functional
# [18] = Growth inhibition of human UO31 cells after 48 hrs by sulforhodamine B assay; format: functional; settings: UO-31, 48 h
# HeLa [19] = experiment: Antiproliferative activity against human HeLa cells overexpressing wild type beta3 tubulin after 48 hrs by sulforhodamine B assay; format: functional, cell-based
# A-431 = experiment: Antiproliferative activity against human A431 cells after 48 hrs by sulforhodamine B assay; format: functional, cell-based; settings: A-431, 48 h
# MDA-MB-435 = experiment: Antiproliferative activity against human MDA-MB-435 cells after 48 hrs by sulforhodamine B assay; format: functional, cell-based; settings: MDA-MB-435, 48 h
# [20] = Growth inhibition of human […] cells after 48 hrs by sulforhodamine B assay; format: functional
# U-251 = experiment: Growth inhibition of human U251 cells after 48 hrs by sulforhodamine B assay; format: functional; settings: U-251, 48 h
# [21] = Growth inhibition of human LOXIMVI cells after 48 hrs by sulforhodamine B assay; format: functional; settings: LOX IMVI
# NCI-H322M = experiment: Growth inhibition of human NCI-H322M cells after 48 hrs by sulforhodamine B assay; format: functional
# [22] = Growth inhibition of human OVCAR8 cells after 48 hrs by sulforhodamine B assay; format: functional; settings: OVCAR-8, 48 h
# SK-OV-3 = experiment: Growth inhibition of human SKOV3 cells after 48 hrs by sulforhodamine B assay; format: functional; settings: SK-OV-3, 48 h
# [23] = Growth inhibition of human SF539 cells after 48 hrs by sulforhodamine B assay; format: functional; settings: SF-539, 48 h
# [24] = Growth inhibition of human RXF393 cells after 48 hrs by sulforhodamine B assay; format: functional; settings: RXF 393, 48 h
smiles,measurement,setting,value
COc1ccc2c(c1)CCCN2c1nc(C)nc2oc(C)cc12,GI50,[1],< 10 nM
same,GI50,SNB-19,< 10 nM
same,EC50,[2],21 nM
same,GI50,[3],< 10 nM
same,GI50,NCI-H522,< 10 nM
same,GI50,A498,< 10 nM
same,IC50,[4],12.9 nM
same,inhibition,Tubulin (Bos taurus) [5],82%
same,GI50,A549,< 10 nM
same,IC50,[6],19.4 nM
same,GI50,[7],15 nM
same,GI50,NCI-H23,< 10 nM
same,GI50,MDA-MB-231,11.4 nM
same,GI50,MCF7,< 10 nM
same,GI50,ACHN,< 10 nM
same,GI50,[8],< 10 nM
same,GI50,[9],< 10 nM
same,IC50,HeLa [10],13.5 nM
same,GI50,K562,< 10 nM
same,GI50,[11],< 10 nM
same,GI50,SK-MEL-28,< 10 nM
same,GI50,HL-60(TB),< 10 nM
same,GI50,DU-145,< 10 nM
same,GI50,SW-620,< 10 nM
same,GI50,[12],< 10 nM
same,GI50,NCI-H460,< 10 nM
same,GI50,[13],51 nM
same,GI50,[14],< 10 nM
same,GI50,[15],43 nM
same,GI50,786-0,< 10 nM
same,GI50,CCRF-CEM,< 10 nM
same,GI50,[16],< 10 nM
same,GI50,HOP-62,< 10 nM
same,GI50,CAKI-1,< 10 nM
same,GI50,MDA-MB-468,< 10 nM
same,GI50,KM12,< 10 nM
same,GI50,IGROV-1,< 10 nM
same,inhibition,Tubulin (Bos taurus) [17],96%
same,GI50,Malme-3M,< 10 nM
same,GI50,SN12C,< 10 nM
same,GI50,[18],< 10 nM
same,IC50,HeLa [19],9.1 nM
same,IC50,A-431,18 nM
same,IC50,MDA-MB-435,9.8 nM
same,GI50,[20],< 10 nM
same,GI50,U-251,< 10 nM
same,GI50,[21],< 10 nM
same,GI50,NCI-H322M,< 10 nM
same,GI50,[22],< 10 nM
same,GI50,SK-OV-3,< 10 nM
same,GI50,[23],< 10 nM
same,GI50,[24],< 10 nM
